From ChEMBL document CHEMBL5465560, “Selectivity Literature for EUbOPEN Chemogenomic Library” (2024)
Each block holds one compound with its values, some of them ahead of it.

How the values were obtained:
[1] = biological target: T1, Serine/threonine-protein kinase tousled-like 1 (Homo sapiens) (UniProt Q9UKI8); assay: Selectivity interaction (LanthaScreen Eu Kinase Binding Assay) EUB0001632a TLK1; settings: at 10 µM
T1 sequence (whole entry): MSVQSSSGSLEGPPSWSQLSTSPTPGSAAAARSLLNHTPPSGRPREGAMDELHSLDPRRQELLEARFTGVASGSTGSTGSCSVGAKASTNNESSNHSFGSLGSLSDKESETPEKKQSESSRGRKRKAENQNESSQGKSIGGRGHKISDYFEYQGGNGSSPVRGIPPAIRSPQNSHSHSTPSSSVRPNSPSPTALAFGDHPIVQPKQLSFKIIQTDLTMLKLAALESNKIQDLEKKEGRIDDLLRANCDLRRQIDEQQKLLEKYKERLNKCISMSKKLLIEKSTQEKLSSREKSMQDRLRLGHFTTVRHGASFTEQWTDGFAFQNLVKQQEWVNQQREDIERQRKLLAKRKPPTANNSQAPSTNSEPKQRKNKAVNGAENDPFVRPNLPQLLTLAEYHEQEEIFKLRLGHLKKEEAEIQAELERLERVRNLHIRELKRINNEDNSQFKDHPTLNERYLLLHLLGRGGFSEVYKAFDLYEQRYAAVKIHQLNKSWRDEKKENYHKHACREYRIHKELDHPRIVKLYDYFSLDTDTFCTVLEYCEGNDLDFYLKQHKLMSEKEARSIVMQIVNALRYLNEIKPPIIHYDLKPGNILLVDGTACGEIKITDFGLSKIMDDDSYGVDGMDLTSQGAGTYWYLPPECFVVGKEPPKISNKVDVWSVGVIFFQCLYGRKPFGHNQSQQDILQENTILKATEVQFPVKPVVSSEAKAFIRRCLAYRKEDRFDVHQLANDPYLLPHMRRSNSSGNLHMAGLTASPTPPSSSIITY

[2] = biological target: Cyclin-dependent kinase 7 (Homo sapiens, UniProt P50613); assay: Selectivity interaction (KINOMEscan (DiscoverX, competition-binding assay)) EUB0001868a CDK7
Sequence of Cyclin-dependent kinase 7 (P50613 whole entry, canonical isoform): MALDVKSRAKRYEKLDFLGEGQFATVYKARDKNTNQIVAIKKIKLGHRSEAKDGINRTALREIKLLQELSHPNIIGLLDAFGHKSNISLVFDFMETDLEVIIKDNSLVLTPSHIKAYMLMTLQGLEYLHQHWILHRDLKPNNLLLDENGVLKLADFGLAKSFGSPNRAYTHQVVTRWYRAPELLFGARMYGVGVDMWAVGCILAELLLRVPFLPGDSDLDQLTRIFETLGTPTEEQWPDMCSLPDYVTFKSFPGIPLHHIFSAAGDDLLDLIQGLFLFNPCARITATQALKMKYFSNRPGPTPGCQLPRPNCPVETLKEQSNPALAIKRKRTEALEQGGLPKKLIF

[3] = biological target: Phosphatidylinositol 4,5-bisphosphate 3-kinase catalytic subunit alpha isoform (Homo sapiens) (UniProt P42336); settings: at 10 µM
Sequence of Phosphatidylinositol 4,5-bisphosphate 3-kinase catalytic subunit alpha isoform (Homo sapiens) (P42336 whole entry, canonical isoform): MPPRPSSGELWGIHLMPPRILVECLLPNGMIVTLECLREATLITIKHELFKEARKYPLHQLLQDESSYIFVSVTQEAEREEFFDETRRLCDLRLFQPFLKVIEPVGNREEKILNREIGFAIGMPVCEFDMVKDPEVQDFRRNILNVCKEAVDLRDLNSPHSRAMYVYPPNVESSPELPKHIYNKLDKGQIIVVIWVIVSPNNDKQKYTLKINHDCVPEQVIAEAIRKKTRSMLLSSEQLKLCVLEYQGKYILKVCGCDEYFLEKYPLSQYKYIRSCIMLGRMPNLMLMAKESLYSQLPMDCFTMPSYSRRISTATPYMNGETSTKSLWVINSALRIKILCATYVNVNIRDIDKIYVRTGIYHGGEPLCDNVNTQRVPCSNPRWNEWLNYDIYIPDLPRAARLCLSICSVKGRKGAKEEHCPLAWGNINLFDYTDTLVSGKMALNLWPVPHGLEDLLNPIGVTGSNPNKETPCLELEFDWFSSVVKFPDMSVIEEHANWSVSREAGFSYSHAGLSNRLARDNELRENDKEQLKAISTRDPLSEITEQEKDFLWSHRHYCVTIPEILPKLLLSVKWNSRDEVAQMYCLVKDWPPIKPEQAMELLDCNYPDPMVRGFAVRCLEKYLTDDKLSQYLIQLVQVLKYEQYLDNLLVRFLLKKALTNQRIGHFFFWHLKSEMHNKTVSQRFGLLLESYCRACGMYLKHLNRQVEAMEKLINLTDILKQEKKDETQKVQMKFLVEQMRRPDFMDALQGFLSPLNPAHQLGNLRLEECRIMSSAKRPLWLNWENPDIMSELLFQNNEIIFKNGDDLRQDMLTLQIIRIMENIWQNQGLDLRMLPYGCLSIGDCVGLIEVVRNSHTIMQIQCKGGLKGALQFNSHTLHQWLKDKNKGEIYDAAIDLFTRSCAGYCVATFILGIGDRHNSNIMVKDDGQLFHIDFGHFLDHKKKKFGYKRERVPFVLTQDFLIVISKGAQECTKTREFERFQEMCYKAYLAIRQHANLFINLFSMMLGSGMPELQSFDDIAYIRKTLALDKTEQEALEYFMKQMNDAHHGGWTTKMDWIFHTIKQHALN

[4] = biological target: T2, Activin receptor type-1 (Homo sapiens) (UniProt Q04771); assay: Selectivity interaction (KinomeScan (DiscoverX)) EUB0001049a ACVR1; settings: at 1 µM
T2 sequence (whole entry): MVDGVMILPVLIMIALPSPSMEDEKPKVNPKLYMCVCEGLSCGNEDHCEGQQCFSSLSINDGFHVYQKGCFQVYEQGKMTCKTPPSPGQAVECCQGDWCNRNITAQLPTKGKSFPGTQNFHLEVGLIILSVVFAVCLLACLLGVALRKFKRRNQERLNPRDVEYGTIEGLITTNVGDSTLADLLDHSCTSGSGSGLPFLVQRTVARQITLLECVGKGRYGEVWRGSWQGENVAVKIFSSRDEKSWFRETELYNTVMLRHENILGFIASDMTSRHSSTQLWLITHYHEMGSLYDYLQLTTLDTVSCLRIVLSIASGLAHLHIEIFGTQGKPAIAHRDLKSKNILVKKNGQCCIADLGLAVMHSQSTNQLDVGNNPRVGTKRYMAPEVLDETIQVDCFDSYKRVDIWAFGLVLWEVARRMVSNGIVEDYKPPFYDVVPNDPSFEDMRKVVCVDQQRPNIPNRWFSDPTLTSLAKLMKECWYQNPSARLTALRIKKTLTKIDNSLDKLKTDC

[5] = biological target: Serine/threonine-protein kinase SIK1 (Homo sapiens) (UniProt P57059); assay: Selectivity interaction (Ambit KINOMEscan and KiNATiv profiling in Jurkat cells) EUB0000090b SIK1; assay type: cell-based; settings: at 1 µM
Sequence of Serine/threonine-protein kinase SIK1 (Homo sapiens) (P57059 whole entry): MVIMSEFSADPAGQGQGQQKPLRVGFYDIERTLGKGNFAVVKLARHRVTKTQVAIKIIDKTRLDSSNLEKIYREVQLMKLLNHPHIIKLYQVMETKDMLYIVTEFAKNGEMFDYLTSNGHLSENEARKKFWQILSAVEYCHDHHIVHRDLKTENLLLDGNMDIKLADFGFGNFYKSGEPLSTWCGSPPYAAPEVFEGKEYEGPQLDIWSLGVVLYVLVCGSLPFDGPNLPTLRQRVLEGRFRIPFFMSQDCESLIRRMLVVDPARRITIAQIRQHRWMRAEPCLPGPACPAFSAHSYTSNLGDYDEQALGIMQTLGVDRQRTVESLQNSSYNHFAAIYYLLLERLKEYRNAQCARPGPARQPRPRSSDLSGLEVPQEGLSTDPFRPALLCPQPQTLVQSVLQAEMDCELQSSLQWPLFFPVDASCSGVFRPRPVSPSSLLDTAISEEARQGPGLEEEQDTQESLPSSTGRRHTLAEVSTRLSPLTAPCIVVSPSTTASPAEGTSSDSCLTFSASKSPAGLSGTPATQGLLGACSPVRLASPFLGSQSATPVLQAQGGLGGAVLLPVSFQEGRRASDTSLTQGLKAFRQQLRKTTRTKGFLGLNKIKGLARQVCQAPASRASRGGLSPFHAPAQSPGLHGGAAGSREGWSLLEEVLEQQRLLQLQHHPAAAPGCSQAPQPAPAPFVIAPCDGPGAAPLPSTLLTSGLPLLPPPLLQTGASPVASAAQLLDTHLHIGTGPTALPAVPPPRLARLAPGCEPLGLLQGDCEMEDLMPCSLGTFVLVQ

[6] = biological target: T3, cGMP-dependent protein kinase 1 (Homo sapiens) (UniProt Q13976); assay: Selectivity interaction (KinomeScan (DiscoverX)) EUB0000045b PRKG1
T3 sequence (whole entry): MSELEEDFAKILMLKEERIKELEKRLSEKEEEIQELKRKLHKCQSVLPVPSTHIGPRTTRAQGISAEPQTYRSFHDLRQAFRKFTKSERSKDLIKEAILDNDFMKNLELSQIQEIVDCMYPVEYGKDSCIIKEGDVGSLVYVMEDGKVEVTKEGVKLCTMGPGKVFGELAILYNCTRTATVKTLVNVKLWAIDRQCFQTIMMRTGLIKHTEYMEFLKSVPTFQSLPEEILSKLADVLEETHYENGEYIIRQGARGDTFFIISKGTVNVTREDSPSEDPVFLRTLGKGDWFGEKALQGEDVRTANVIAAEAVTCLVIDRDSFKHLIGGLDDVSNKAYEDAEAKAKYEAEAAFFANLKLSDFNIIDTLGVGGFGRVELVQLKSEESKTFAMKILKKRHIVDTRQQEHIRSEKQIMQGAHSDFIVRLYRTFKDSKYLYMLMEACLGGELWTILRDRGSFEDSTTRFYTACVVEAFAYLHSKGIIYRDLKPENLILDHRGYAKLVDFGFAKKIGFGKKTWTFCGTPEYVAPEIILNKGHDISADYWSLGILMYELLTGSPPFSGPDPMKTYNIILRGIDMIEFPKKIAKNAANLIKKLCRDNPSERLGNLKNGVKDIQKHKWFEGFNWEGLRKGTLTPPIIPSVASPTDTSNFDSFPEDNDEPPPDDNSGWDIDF

[7] = biological target: T4, Phosphatidylinositol 5-phosphate 4-kinase type-2 beta (Homo sapiens) (UniProt P78356); assay: Selectivity interaction (Kinase panel (KiNativ target engagement assay in Jurkat cells)) EUB0001635a PIP4K2B; assay type: cell-based; settings: Selectivity number of off-targets 0.0, Selectivity number of targets 233.0, Source Knowledge https://www.sciencedirect.com/science/article/pii/S2451945619300674?via%3Dihub, at 1 µM
T4 sequence (whole entry): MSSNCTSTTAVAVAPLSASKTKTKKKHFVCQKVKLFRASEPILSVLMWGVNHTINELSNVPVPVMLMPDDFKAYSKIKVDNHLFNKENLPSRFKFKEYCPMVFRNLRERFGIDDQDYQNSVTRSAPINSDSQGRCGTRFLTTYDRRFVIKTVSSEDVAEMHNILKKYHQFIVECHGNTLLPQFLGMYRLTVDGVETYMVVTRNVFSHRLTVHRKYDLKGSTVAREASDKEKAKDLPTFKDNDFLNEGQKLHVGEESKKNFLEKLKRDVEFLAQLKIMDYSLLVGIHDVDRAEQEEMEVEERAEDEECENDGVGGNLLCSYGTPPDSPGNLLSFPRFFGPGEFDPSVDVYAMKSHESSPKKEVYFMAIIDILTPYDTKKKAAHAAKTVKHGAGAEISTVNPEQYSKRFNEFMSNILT

[8] = biological target: Tyrosine-protein kinase BAZ1B (Homo sapiens) (UniProt Q9UIG0); assay: Selectivity interaction (Bromodomain panel (DSF asssay)) EUB0000270b BAZ1B
Sequence of Tyrosine-protein kinase BAZ1B (Homo sapiens) (Q9UIG0 whole entry): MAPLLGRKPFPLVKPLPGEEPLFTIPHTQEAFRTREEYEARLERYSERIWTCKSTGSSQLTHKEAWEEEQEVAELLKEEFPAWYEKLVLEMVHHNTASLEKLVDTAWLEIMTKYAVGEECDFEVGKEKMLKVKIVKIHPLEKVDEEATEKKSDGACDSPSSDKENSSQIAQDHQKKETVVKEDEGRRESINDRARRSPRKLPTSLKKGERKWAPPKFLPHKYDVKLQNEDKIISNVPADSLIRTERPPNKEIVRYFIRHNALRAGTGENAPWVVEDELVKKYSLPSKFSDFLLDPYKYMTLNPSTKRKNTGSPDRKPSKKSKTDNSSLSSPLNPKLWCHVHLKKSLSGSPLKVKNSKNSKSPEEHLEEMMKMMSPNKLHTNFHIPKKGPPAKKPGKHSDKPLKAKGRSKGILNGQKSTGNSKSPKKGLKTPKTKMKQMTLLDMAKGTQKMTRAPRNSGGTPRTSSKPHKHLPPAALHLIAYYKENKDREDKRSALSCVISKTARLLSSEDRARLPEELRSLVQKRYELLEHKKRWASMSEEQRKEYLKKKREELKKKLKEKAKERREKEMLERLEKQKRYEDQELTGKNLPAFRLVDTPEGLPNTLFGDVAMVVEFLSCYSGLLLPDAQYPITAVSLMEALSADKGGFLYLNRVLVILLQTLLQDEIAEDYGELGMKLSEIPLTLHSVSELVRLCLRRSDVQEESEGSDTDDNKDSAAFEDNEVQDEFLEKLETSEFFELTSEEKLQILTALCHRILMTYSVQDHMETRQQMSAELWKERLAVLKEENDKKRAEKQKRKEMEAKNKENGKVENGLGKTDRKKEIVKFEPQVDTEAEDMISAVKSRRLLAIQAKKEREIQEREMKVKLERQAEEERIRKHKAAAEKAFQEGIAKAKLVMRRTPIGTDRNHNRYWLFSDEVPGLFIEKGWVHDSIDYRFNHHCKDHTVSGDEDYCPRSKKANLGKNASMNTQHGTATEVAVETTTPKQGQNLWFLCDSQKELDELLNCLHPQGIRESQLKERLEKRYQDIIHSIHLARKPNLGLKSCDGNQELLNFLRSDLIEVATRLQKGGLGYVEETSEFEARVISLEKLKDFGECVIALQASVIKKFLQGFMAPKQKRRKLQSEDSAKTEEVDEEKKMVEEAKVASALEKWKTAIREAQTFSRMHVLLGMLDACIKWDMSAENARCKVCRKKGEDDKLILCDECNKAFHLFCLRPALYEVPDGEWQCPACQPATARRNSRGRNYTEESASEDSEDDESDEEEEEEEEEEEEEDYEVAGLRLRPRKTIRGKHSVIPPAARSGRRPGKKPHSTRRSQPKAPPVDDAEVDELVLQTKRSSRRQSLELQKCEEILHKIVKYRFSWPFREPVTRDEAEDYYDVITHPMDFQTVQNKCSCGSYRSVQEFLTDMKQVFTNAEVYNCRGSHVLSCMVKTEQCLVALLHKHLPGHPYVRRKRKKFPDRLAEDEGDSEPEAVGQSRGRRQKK

[9] = biological target: Serine/threonine-protein kinase 32C (Homo sapiens) (UniProt Q86UX6); settings: at 10 µM
Sequence of Serine/threonine-protein kinase 32C (Homo sapiens) (Q86UX6 whole entry): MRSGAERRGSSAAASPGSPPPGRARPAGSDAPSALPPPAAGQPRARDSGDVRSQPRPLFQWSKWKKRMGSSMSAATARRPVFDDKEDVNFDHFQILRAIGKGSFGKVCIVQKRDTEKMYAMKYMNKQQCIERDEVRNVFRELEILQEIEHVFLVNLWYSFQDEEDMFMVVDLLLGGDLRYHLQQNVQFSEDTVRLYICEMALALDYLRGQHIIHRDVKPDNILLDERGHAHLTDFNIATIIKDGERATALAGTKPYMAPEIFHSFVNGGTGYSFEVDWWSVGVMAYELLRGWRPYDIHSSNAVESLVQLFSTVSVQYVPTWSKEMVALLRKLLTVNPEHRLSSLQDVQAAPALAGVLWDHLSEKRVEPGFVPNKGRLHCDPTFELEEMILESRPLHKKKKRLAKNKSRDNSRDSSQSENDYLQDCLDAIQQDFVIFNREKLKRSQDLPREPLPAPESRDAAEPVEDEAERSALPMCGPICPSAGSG

% of inhibition [1]: 5.47%
Compound: Cn1cc(-n2cnc3c(NCc4nc5cc(Cl)c(Cl)cc5[nH]4)nc(N4CCOCC4)nc32)cn1

Kd [2]: 880 nM
Compound: Cc1cc(-c2ccnc(Nc3cnn(C)c3)n2)ccc1CNC(=O)N1CC(OC(C)C)C1

Compound: CNC(=O)Nc1ccc(-c2nc(N3CC4CCC(C3)O4)c3cnn(C4CCC5(CC4)OCCO5)c3n2)cc1
% of control [3]: 16%

Compound: COc1cc(Nc2nc(C)cc(-c3cnn4nc(OC)ccc34)n2)cc(C(F)(F)F)c1
% of control [4]: 78%

Compound: CN(C)C/C=C/C(=O)Nc1ccc(C(=O)N2CCCC(Nc3ncc(Cl)c(-c4c[nH]c5ccccc45)n3)C2)cc1 (stereo not given)
% of control [5]: 98%

Compound: C=CC(=O)Nc1cc(-n2c(=O)ccc3cnc4ccc(-c5ccc(NS(C)(=O)=O)cc5)cc4c32)ccc1C
% of control ([6]; at 1 µM): 87% | % of control ([6]; at 10 µM): 100%

Compound: C=CC(=O)Nc1ccc(C(=O)Nc2[nH]nc3c2CN(C(=O)N[C@H](CN(C)C)c2ccccc2)C3(C)C)cc1
% of engagement [7]: -4.5%

dTM [8]: -1.22 K
Compound: Cc1cc(CN)cc(C)c1-c1ncn(C)c1-c1cncn1C

Compound: Cc1cc([C@@H](C)Nc2ccccc2C(=O)O)c2nc(N3CCOCC3)cc(=O)n2c1 [AZD-6482]
% of control [9]: 82%
